ChEMBL document CHEMBL5625277, “Systematical mutational analysis of teriparatide on anti-osteoporosis activity by alanine scanning” (Bioorg Med Chem Lett, 2024)

assay: Cytotoxicity in pre-osteoblasts (unknown origin) assessed as cell death upto 5 uM by CCK8 assay; type: toxicity, cell-based; conditions: pre-osteoblast

Q: For `CC[C@H](C)[C@H](NC(=O)[C@H](CCC(=O)O)NC(=O)[C@H](CO)NC(=O)[C@@H](NC(=O)[C@H](CO)NC(C)=O)C(C)C)C(=O)N[C@@H](CCC(N)=O)C(=O)N[C@@H](CC(C)C)C(=O)N[C@@H](C)C(=O)N[C@@H](Cc1cnc[nH]1)C(=O)N[C@@H](CC(N)=O)C(=O)N[C@@H](CC(C)C)C(=O)NCC(=O)N[C@@H](CCCCN)C(=O)N[C@@H](Cc1cnc[nH]1)C(=O)N[C@@H](CC(C)C)C(=O)N[C@@H](CC(N)=O)C(=O)N[C@@H](CO)C(=O)N[C@@H](CCSC)C(=O)N[C@@H](CCC(=O)O)C(=O)N[C@@H](CCCNC(=N)N)C(=O)N[C@H](C(=O)N[C@@H](CCC(=O)O)C(=O)N[C@@H](Cc1c[nH]c2ccccc12)C(=O)N[C@@H](CC(C)C)C(=O)N[C@@H](CCCNC(=N)N)C(=O)N[C@@H](CCCCN)C(=O)N[C@@H](CCCCN)C(=O)N[C@@H](CC(C)C)C(=O)N[C@@H](CCC(N)=O)C(=O)N[C@@H](CC(=O)O)C(=O)N[C@H](C(=O)N[C@@H](Cc1cnc[nH]1)C(=O)N[C@@H](CC(N)=O)C(=O)N[C@@H](Cc1ccccc1)C(N)=O)C(C)C)C(C)C`, which Activity is on record?
A: The Activity was “Non-Toxic”.

Q: For `CC[C@H](C)[C@H](NC(=O)[C@H](CCC(=O)O)NC(=O)[C@H](CO)NC(=O)[C@@H](NC(=O)[C@H](CO)NC(C)=O)C(C)C)C(=O)N[C@@H](CCC(N)=O)C(=O)N[C@@H](CC(C)C)C(=O)N[C@@H](CCSC)C(=O)N[C@@H](C)C(=O)N[C@@H](CC(N)=O)C(=O)N[C@@H](CC(C)C)C(=O)NCC(=O)N[C@@H](CCCCN)C(=O)N[C@@H](Cc1cnc[nH]1)C(=O)N[C@@H](CC(C)C)C(=O)N[C@@H](CC(N)=O)C(=O)N[C@@H](CO)C(=O)N[C@@H](CCSC)C(=O)N[C@@H](CCC(=O)O)C(=O)N[C@@H](CCCNC(=N)N)C(=O)N[C@H](C(=O)N[C@@H](CCC(=O)O)C(=O)N[C@@H](Cc1c[nH]c2ccccc12)C(=O)N[C@@H](CC(C)C)C(=O)N[C@@H](CCCNC(=N)N)C(=O)N[C@@H](CCCCN)C(=O)N[C@@H](CCCCN)C(=O)N[C@@H](CC(C)C)C(=O)N[C@@H](CCC(N)=O)C(=O)N[C@@H](CC(=O)O)C(=O)N[C@H](C(=O)N[C@@H](Cc1cnc[nH]1)C(=O)N[C@@H](CC(N)=O)C(=O)N[C@@H](Cc1ccccc1)C(N)=O)C(C)C)C(C)C`, which Activity is on record?
A: Its Activity is “Non-Toxic”.

Q: With `CC[C@H](C)[C@H](NC(=O)[C@H](CCC(=O)O)NC(=O)[C@H](CO)NC(=O)[C@@H](NC(=O)[C@H](CO)NC(C)=O)C(C)C)C(=O)N[C@@H](CCC(N)=O)C(=O)N[C@@H](CC(C)C)C(=O)N[C@@H](CCSC)C(=O)N[C@@H](Cc1cnc[nH]1)C(=O)N[C@@H](CC(N)=O)C(=O)N[C@@H](CC(C)C)C(=O)NCC(=O)N[C@@H](CCCCN)C(=O)N[C@@H](Cc1cnc[nH]1)C(=O)N[C@@H](CC(C)C)C(=O)N[C@@H](CC(N)=O)C(=O)N[C@@H](CO)C(=O)N[C@@H](CCSC)C(=O)N[C@@H](CCC(=O)O)C(=O)N[C@@H](CCCNC(=N)N)C(=O)N[C@H](C(=O)N[C@@H](CCC(=O)O)C(=O)N[C@@H](Cc1c[nH]c2ccccc12)C(=O)N[C@@H](CC(C)C)C(=O)N[C@@H](CCCNC(=N)N)C(=O)N[C@@H](CCCCN)C(=O)N[C@@H](CCCCN)C(=O)N[C@@H](CC(C)C)C(=O)N[C@@H](CCC(N)=O)C(=O)N[C@@H](CC(=O)O)C(=O)N[C@H](C(=O)N[C@@H](Cc1cnc[nH]1)C(=O)N[C@@H](C)C(=O)N[C@@H](Cc1ccccc1)C(N)=O)C(C)C)C(C)C` as the molecule, how does the Activity read?
A: The Activity was “Non-Toxic”.
